The values below come from DBAASP.

Test systems include Candida albicans; Escherichia coli; Bacillus subtilis 168; Escherichia coli B; Pseudomonas aeruginosa; Staphylococcus aureus.
Holding throughout (assay): ≥ marks a high value that may be exact or a test limit, other limits are often not marked, values filed in µg/mL are converted to µM
Test [1] relates to Bacillus subtilis ATCC 6633.
The subject of test [2] is Escherichia coli ATCC 25922.
Test [3] deals with Pseudomonas aeruginosa ATCC 27853.
The subject of test [4] is Enterococcus faecalis ATCC 29212.
Test [5] relates to Salmonella enterica subsp. enterica serovar Pullorum C79-13.
In test [6] the test system is Salmonella enterica subsp. enterica serovar Typhimurium C77-31.
Test [7] relates to Staphylococcus aureus ATCC 29213.
Test [8] deals with Staphylococcus epidermidis ATCC 12228.
In test [9] the test system is Bacillus subtilis ATCC 23857.
In test [10] the test system is Klebsiella pneumoniae ATCC 700603.
The subject of test [11] is Pseudomonas aeruginosa ATCC 9027.
The test system of test [12] is Staphylococcus aureus ATCC 25923.
Test [13] deals with Acinetobacter baumannii ATCC 19606.
Test [14] concerns Candida albicans ATCC 10231.

Values after ≈ are worked out from the molar mass of the structure shown.

Broadly, the MIC is the lowest concentration that inhibits growth of the organism. `CC[C@H](C)[C@H](NC(=O)[C@H](CCC(=O)O)NC(=O)[C@H](CCCCN)NC(=O)[C@H](CCSC)NC(=O)[C@H](CCCCN)NC(=O)[C@H](C)NC(=O)[C@H](CC(C)C)NC(=O)[C@H](Cc1ccccc1)NC(=O)[C@H](C)NC(=O)[C@H](CCC(N)=O)NC(=O)[C@H](CC(C)C)NC(=O)[C@H](CCCN=C(N)N)NC(=O)CN)C(=O)N[C@@H](C)C(=O)N[C@@H](C)C(=O)N[C@@H](CCC(N)=O)C(=O)N[C@H](C(=O)N[C@@H](CC(C)C)C(N)=O)[C@@H](C)O` [GRLQAFLAKMKEIAAQTL]: the minimum inhibitory concentration (MIC) was 2.22 µM (≈ 4.41 µg/mL) in test [1], 1.77 µM (≈ 3.52 µg/mL) against Candida albicans, 4.44 µM (≈ 8.84 µg/mL) in test [2] and 7.1 µM (≈ 14.1 µg/mL) in [3].

Consider `CC(C)C[C@H](NC(=O)[C@@H](NC(=O)[C@@H](NC(=O)[C@@H](N)CC(C)C)C(C)C)[C@@H](C)O)C(=O)N[C@H](C(=O)N[C@@H](Cc1ccccc1)C(=O)N[C@H](C(=O)NCC(=O)NCC(=O)NCC(=O)N[C@@H](Cc1c[nH]c2ccccc12)C(=O)N[C@@H](CCCCN)C(=O)N[C@@H](Cc1c[nH]c2ccccc12)C(=O)N[C@@H](CCCCN)C(=O)N[C@@H](Cc1c[nH]c2ccccc12)C(=O)N[C@@H](CCC(=O)O)C(=O)N[C@@H](CC(N)=O)C(=O)NCC(=O)N[C@@H](CCCCN)C(=O)N[C@@H](Cc1c[nH]c2ccccc12)C(=O)N[C@@H](CCCCN)C(=O)N[C@@H](Cc1c[nH]c2ccccc12)C(=O)N[C@@H](CCCCN)C(=O)N[C@@H](Cc1c[nH]c2ccccc12)C(=O)O)C(C)C)C(C)C` [LVTLVFVGGGWKWKWENGKWKWKW], for which the MIC is 8 µM (≈ 24.2 µg/mL) in [4]; 64 µM (≈ 193 µg/mL) in test [2]; at least 128 µM in [5]; at least 128 µM in test [6]; above 128 µM in [7]; above 128 µM in test [8].

On to `CC[C@H](C)[C@H](NC(=O)[C@H](CCCCN)NC(=O)[C@H](CCCCN)NC(=O)[C@H](C)NC(=O)[C@@H](NC(=O)[C@H](CCCCN)NC(=O)[C@H](CC(C)C)NC(=O)[C@H](CC(C)C)NC(=O)[C@H](CCCCN)NC(=O)[C@H](CCCCN)NC(=O)[C@H](CC(C)C)NC(=O)[C@H](CC(N)=O)NC(=O)[C@@H](N)CC(C)C)C(C)C)C(=O)N[C@@H](CC(C)C)C(N)=O` [LNLKKLLKVAKKIL], for which the MIC in test [9] was determined as 4 µM (≈ 6.48 µg/mL); in test [2] it was 8 µM (≈ 13 µg/mL); in test [10], 8 µM (≈ 13 µg/mL); in [11] it was 4 µM (≈ 6.48 µg/mL); in [12] it was 16 µM (≈ 25.9 µg/mL).

Regarding `CC[C@H](C)[C@H](NC(=O)[C@H](CCCCN)NC(=O)[C@H](CCCCN)NC(=O)[C@H](C)NC(=O)[C@@H](NC(=O)[C@H](C)NC(=O)[C@H](C)NC(=O)[C@H](CC(C)C)NC(=O)[C@H](C)NC(=O)[C@H](CCCCN)NC(=O)[C@H](CC(C)C)NC(=O)[C@H](CC(N)=O)NC(=O)[C@@H](N)CC(C)C)C(C)C)C(=O)N[C@@H](CC(C)C)C(N)=O` [LNLKALAAVAKKIL], the MIC came to 8 µM (≈ 11.7 µg/mL) in [9], 8 µM (≈ 11.7 µg/mL) in the test with Escherichia coli, 16 µM (≈ 23.4 µg/mL) in test [10] and 16 µM (≈ 23.4 µg/mL) in [12].

As for `CC[C@H](C)[C@H](N)C(=O)N[C@@H](CC(C)C)C(=O)NCC(=O)N[C@@H](CCCCN)C(=O)N[C@H](C(=O)N[C@H](C(=O)N[C@@H](CCCCN)C(=O)N[C@H](C(=O)N[C@H](C(=O)N[C@@H](CCCCN)C(N)=O)C(C)C)C(C)C)[C@@H](C)CC)[C@@H](C)CC` [ILGKIIKVVK], the MIC is at least 40 µM in the test with Bacillus subtilis 168, at least 40 µM in the test on Escherichia coli B, above 100 µM in the test with Pseudomonas aeruginosa and above 100 µM in the test on Staphylococcus aureus.

As for `CC[C@H](C)[C@H](NC(=O)[C@H](CO)NC(=O)[C@H](CC(C)C)NC(=O)[C@H](Cc1ccccc1)NC(=O)CN)C(=O)N[C@@H](CC(C)C)C(=O)N[C@@H](CCCCN)C(=O)N[C@@H](CCCCN)C(=O)N[C@H](C(=O)N[C@@H](CC(C)C)C(=O)N[C@@H](C)C(=O)N[C@@H](CCCCN)C(=O)N[C@H](C(=O)N[C@@H](CCSC)C(=O)N[C@@H](C)C(=O)N[C@@H](Cc1cnc[nH]1)C(=O)N[C@@H](CCSC)C(=O)N[C@@H](CCCCN)C(N)=O)C(C)C)C(C)C` [GFLSILKKVLAKVMAHMK], the MIC in the test with Bacillus subtilis 168 was found to be 1.3 µM (≈ 2.62 µg/mL); in the test on Escherichia coli B, 1.6 µM (≈ 3.22 µg/mL); in the test with Pseudomonas aeruginosa, 18.3 µM (≈ 36.8 µg/mL); against Staphylococcus aureus it was 4.7 µM (≈ 9.46 µg/mL).

For the molecule `CC[C@H](C)[C@H](NC(=O)[C@H](CCCCN)NC(=O)[C@H](CCCCN)NC(=O)[C@H](Cc1c[nH]c2ccccc12)NC(=O)[C@H](CC(N)=O)NC(=O)[C@@H](N)C(C)C)C(=O)N[C@@H](CC(C)C)C(=O)NCC(N)=O` [VNWKKILG], the MIC against Bacillus subtilis 168 was at least 200 µM; with Escherichia coli B, at least 100 µM; with Pseudomonas aeruginosa it was above 100 µM; in the test with Staphylococcus aureus, above 100 µM.

For the molecule `CC[C@H](C)[C@H](NC(=O)[C@H](CC(C)C)NC(=O)[C@H](Cc1cnc[nH]1)NC(=O)[C@@H]1CCCN1C(=O)[C@H](CC(C)C)NC(=O)[C@@H](NC(=O)[C@H](CCCCN)NC(=O)[C@H](CO)NC(=O)[C@H](Cc1c[nH]c2ccccc12)NC(=O)[C@H](CCSC)NC(=O)CN)[C@@H](C)CC)C(=O)N[C@@H](CCCN=C(N)N)C(N)=O` [GMWSKILPHLIR], the MIC in the test with Bacillus subtilis 168 was 3.3 µM (≈ 4.78 µg/mL); in the test with Escherichia coli B it was 20 µM (≈ 29 µg/mL); with Pseudomonas aeruginosa, above 100 µM; against Staphylococcus aureus it was above 100 µM.

For the molecule `CC[C@H](C)[C@H](NC(=O)[C@H](CCCN=C(N)N)NC(=O)[C@H](CCCN=C(N)N)NC(=O)[C@H](C)NC(=O)[C@@H](NC(=O)[C@H](C)NC(=O)[C@H](CC(C)C)NC(=O)[C@H](CC(C)C)NC(=O)[C@H](C)NC(=O)[C@H](CCCN=C(N)N)NC(=O)[C@H](CC(C)C)NC(=O)[C@H](CC(N)=O)NC(=O)[C@@H](N)CC(C)C)C(C)C)C(=O)N[C@@H](CC(C)C)C(N)=O` [LNLRALLAVARRIL], the minimum inhibitory concentration (MIC) was found to be 4 µM (≈ 6.36 µg/mL) in test [9]; 4 µM (≈ 6.36 µg/mL) in test [2]; 16 µM (≈ 25.5 µg/mL) in test [10]; 8 µM (≈ 12.7 µg/mL) in [11]; 4 µM (≈ 6.36 µg/mL) in test [12].

Turning to `CC[C@H](C)[C@H](NC(=O)[C@H](CC(C)C)NC(=O)[C@H](Cc1cnc[nH]1)NC(=O)CNC(=O)[C@H](CC(C)C)NC(=O)[C@@H](NC(=O)[C@H](CCCCN)NC(=O)[C@H](CO)NC(=O)[C@@H](N)Cc1c[nH]c2ccccc12)[C@@H](C)CC)C(=O)N[C@@H](CCCN=C(N)N)C(N)=O` [WSKILGHLIR], the MIC in the test with Bacillus subtilis 168 was 18.3 µM (≈ 22.4 µg/mL); against Escherichia coli B, at least 100 µM; against Pseudomonas aeruginosa, above 100 µM; against Staphylococcus aureus, above 100 µM.

For the molecule `CC[C@H](C)[C@H](NC(=O)[C@H](CCCN=C(N)N)NC(=O)[C@H](CCCCN)NC(=O)[C@H](Cc1ccccc1)NC(=O)[C@H](Cc1ccccc1)NC(=O)CN)C(=O)N[C@@H](CCCN=C(N)N)C(=O)N[C@H](C(=O)N[C@@H](Cc1ccccc1)C(=O)N[C@@H](Cc1ccccc1)C(N)=O)[C@@H](C)O` [GFFKRIRTFF], the MIC turned out to be 64 µM (≈ 84.3 µg/mL) in [13]; 16 µM (≈ 21.1 µg/mL) in test [9]; 64 µM (≈ 84.3 µg/mL) in [4]; 32 µM (≈ 42.2 µg/mL) in test [2]; 32 µM (≈ 42.2 µg/mL) in test [10]; 4 µM (≈ 5.27 µg/mL) in test [3]. Besides, the results for the MIC in test [12] and in test [8] were 16 µM (≈ 21.1 µg/mL) and 64 µM (≈ 84.3 µg/mL), respectively.

For `CC[C@H](C)[C@H](NC(=O)[C@H](Cc1cnc[nH]1)NC(=O)[C@H](CCCCN)NC(=O)[C@H](CC(C)C)NC(=O)[C@H](CC(C)C)NC(=O)[C@H](CO)NC(=O)[C@H](CCSC)NC(=O)[C@H](Cc1c[nH]c2ccccc12)NC(=O)[C@H](CCCCN)NC(=O)CN)C(=O)N[C@@H](Cc1c[nH]c2ccccc12)C(=O)N[C@@H](CCCCN)C(N)=O` [GKWMSLLKHIWK], the MIC in the test on Bacillus subtilis 168 stood at 1.3 µM (≈ 1.98 µg/mL); with Escherichia coli B, 5 µM (≈ 7.63 µg/mL); with Pseudomonas aeruginosa, 25 µM (≈ 38.1 µg/mL); against Staphylococcus aureus it was 12.2 µM (≈ 18.6 µg/mL).

On to `CC(C)C[C@H](NC(=O)[C@H](CC(C)C)NC(=O)[C@H](CCCN=C(N)N)NC(=O)[C@H](CCCN=C(N)N)NC(=O)[C@H](CC(C)C)NC(=O)[C@@H](N)CC(C)C)C(=O)N[C@@H](CCCN=C(N)N)C(=O)N[C@@H](CCCN=C(N)N)C(N)=O` [LLRRLLRR], for which the MIC is at least 57.1 µM in test [9] and 114 µM (≈ 125 µg/mL) in [14].

As to `CC(C)C[C@H](NC(=O)[C@H](C)NC(=O)[C@@H](NC(=O)[C@H](CCCCN)NC(=O)[C@H](C)NC(=O)[C@H](CCCN=C(N)N)NC(=O)[C@H](CCCCN)NC(=O)[C@H](CC(C)C)NC(=O)[C@H](C)NC(=O)CN)[C@@H](C)O)C(N)=O` [GALKRAKTAL], the MIC in [13] was above 512 µM; in test [9], at least 512 µM; in [4], above 512 µM; in [2], above 512 µM; in test [10] it was above 512 µM; in test [3] it was above 512 µM. In addition, the MIC in test [12] and in test [8] was above 512 µM in each case.
